Reference: patent US8044206B2, “Nitrogen—containing heterocyclic derivatives having 2,6-disubstituted styryl” (Astellas Pharma Inc., priority 2003, dated 2011)
Where a name gives a salt, the structure may show the parent alone.

How the values were obtained:
[1] = test system: mice with streptozotocin (STZ)-induced diabetic neuropathy; assay: Analgesic action in mice with streptozotocin (STZ)-induced diabetic neuropathy, tail pinch test; type: in vivo; conditions: male ICR mice, Day 15 after STZ, oral 30 mg/kg, 45 minutes prior to measurement, latency after minus before administration
Method: Representative compounds of Compound (I) of the present invention were assessed for the analgesic action in mice with streptozotocin (STZ)-induced diabetic neuropathy to confirm the effect on neuropathic pain. The assessment was performed by the method of Kamei et al. (Pharmacology Biochemistry & Behavior 39, 541-544, 1991) with some modifications.
Male ICR mice of 4 weeks old were intraperitoneally injected with 200 mg/kg weight of STZ to prepare mice with diabetic neuropathic pain. The analgesic action was assessed by the tail pinch test. […] On Day 14 following the STZ injection, a pretest was carried out to determine the response latency before the administration of a test compound. Only the animals showing not longer than 3 seconds of the response latency in the pretest were used for the test compound assessment on the following day (Day 15 after STZ injection).
In the test compound assessment, the response latency after the administration of a test compound was measured. The test compound was orally administered at a dose of 30 mg/kg, 45 minutes prior to the response latency measurement
The analgesic action of a test compound is expressed as prolongation of latency (in seconds) calculated by the formula: (response latency after administration of a test compound)−(response latency before administration of a test compound).

sodium channel = assay: [14C] guanidine uptake induced by veratridine in rat cerebral cortex primary neurons (sodium channel inhibitory action); type: cell-based; conditions: [14C] guanidine uptake induced by 100 μM veratridine, specific uptake = portion inhibited by 1 mM mexiletine, read-out: Na Channel Inhibition IC50
Method: The [^14C] guanidine uptake experiment was performed by the method of Bonisch et al. (British Journal of Pharmacology 108, 436-442, 1993) with some modifications. The [^14C] guanidine was used as a sodium tracer, and the inhibitory activity on uptake of [^14C] guanidine induced by veratridine as a sodium channel activator into rat cerebral cortex primary neurons was measured.
Pregnant rats (Wistar, female, 19 days of gestation) were anesthetized with ether. The animals were bled to death by giving incision through the carotid artery. The fetuses were taken out of the pregnant rats and after ethanol sterilization, the cerebral cortex was removed from the fetuses. The cerebral cortex was digested with papain and dispersed in culture medium, followed by plating on a poly-L-lysine-coated 96-well white plate at a density of 2.5×10^5 cells/well. Incubation was performed in a CO2 incubator (37° C., 5% CO2) for 2 days.
After each well was washed once with an assay buffer (135 mM choline Cl, 5 mM KCl, 1 mM MgSO4, 5.5 mM glucose, 1 mg/mL BSA, 10 mM Hepes-Tris, pH 7.4), a fresh assay buffer was added to the well, followed by incubation at 25° C. for 10 minutes. Then, a reaction solution (a test compound, [^14C] guanidine and 100 μM, veratridine) was replaced for the buffer, followed by incubation at 25° C. for 15 minutes. The reaction was terminated by washing 3 times with a cold wash buffer (135 mM NaCl, 5 mM KCl, 1 mM MgSO4, 10 mM Hepes-Tris, pH 7.4). To each well, 17 μl of 0.1N NaOH was added. After agitation, 100 μl of scintillator was added to the well and further agitation was continued. The radioactivity was quantified by a liquid scintillation counter. In each experiment, the sodium channel-specific uptake of the whole uptake was designated as portion that was inhibited by 1 mM mexiletine. The action of the test compound on sodium channel is expressed as 50% inhibition concentration (IC50) based on the specific uptake.

[2] = test system: L5/L6 spinal nerve ligation rats; assay: animal or person; conditions: Rattus norvegicus, po, read-out: anti-allodynia ED50
Method: The the assessment was performed by the method of Kim and Chung (Pain 50, 355-363, 1992) with some modifications.
Under pentobarbital anesthesia, male SD rats of 5 or 6 weeks old were given surgery to ligate both the left L5 and L6 lumbar nerves tightly with silk threads. For the assessment of analgesic action, the von Frey hair test was adopted. That is, the animal's hindpaw was picked with hair and the lowest strength of hair for limb withdrawal response was designated as a response threshold (log gram) to mechanical stimulation. […] On the day before the assessment of a test compound, the response threshold before administration of a test compound was measured. The animals were divided into 4 to 5 groups so that differences in the mean values of response thresholds before administration among the groups and variation within groups become small. In the assessment of a test compound, the response threshold after administration of the test compound was measured. The test compound was orally given 30 minutes before measurement of the response threshold. The anti-allodynia action potency of a test compound is expressed as ED50. In the calculation of the ED50, the thresholds of ipsilateral and contralateral paws in the solvent group were designated as 0% and 100%, respectively.

Compound | Anti-STZ-induced pain after oral administration: Latency prolongation [1] | IC50 (sodium channel) [µM] | ED50 [2] [mg/kg]
Cc1cccc(C)c1/C=C/C12CCN(CC1)CC2 [Example 24, 4-[(E)-2-(2,6-dimethylphenyl)vinyl]quinuclidine] | 2.6 s | 10 | 
Cc1cccc(Cl)c1/C=C/C1CCNCC1 [Example 37, 4-[(E)-2-(2-chloro-6-methylphenyl)vinyl]piperidine hydrochloride] | 1.9 s | 10 | 
Cc1cccc(C)c1/C=C\C1CCNCC1 [Example 38, 4-[(Z)-2-(2,6-dimethylphenyl)vinyl]piperidine] | 3.1 s | 6 | 
Cc1cccc(C)c1/C=C/C1CCNCC1 [Example 39, 4-[(E)-2-(2,6-dimethylphenyl)vinyl]piperidine monohydrochloride] | 2.9 s | 16 | 
Cc1cc(N(C)C)cc(C)c1/C=C/C1CCNCC1 [Example 53, N,N,3,5-tetramethyl-4-[(E)-2-piperidin-4-ylvinyl]aniline] | 4.2 s | 19 | 
Cc1cccc(C)c1/C=C/C1CCCCN1 (stereo not shown) [Example 62, 2-[(E)-2-(2,6-dimethylphenyl)vinyl]piperidine monohydrochloride] | 2.3 s | 9.2 | 
Cc1cccc(C)c1/C=C/C1CCCNCC1 (stereo not shown) [Example 63, 4-[(E)-2-(2,6-dimethylphenyl)vinyl]azepane] | 3.3 s | 10 | 
Cc1cccc(C)c1/C=C/CC1CCNCC1 [Example 65, 4-[(2E)-3-(2,6-dimethylphenyl)prop-2-en-1-yl]piperidine] | 2.3 s | 11 | 
Cc1cccc(C)c1/C=C/C1CCCN(C)C1 (stereo not shown) [Example 71, 3-[(E)-2-(2,6-dimethylphenyl)vinyl]-1-methylpiperidine] | 2.3 s | 7.7 | 
Cc1cccc(C)c1/C=C/C1CCN(CCN(C)C)CC1 [Example 74, (2-{4-[(E)-2-(2,6-dimethylphenyl)vinyl]piperidin-1-yl}ethyl)dimethylamine] | 1.8 s | 7.2 | 
Cc1cccc(C)c1/C=C/C1CCN(C(=O)CN2CCNCC2)CC1 [Example 204, 1-(2-{4-[(E)-2-(2,6-dimethylphenyl)vinyl]piperidin-1-yl}-2-oxoethyl)piperazine] | 2.4 s |  | 
Cc1cccc(C)c1/C=C/C1CCN(C(=O)CN2C[C@H]3C[C@@H]2CN3)CC1 [Example 205, (1R,4R)-2-(2-{4-[(E)-2-(2,6-dimethylphenyl)vinyl]piperidin-1-yl}-2-oxoethyl)-2,5-diazabicyclo[2.2.1]heptane] | 1.6 s |  | 
Cc1cccc(C)c1OCC(C)N (stereo not shown) [Mexiletine, reference compound] | about 3 seconds | 70 | ~70
